What was measured:
[1] = for vapor or sublimation pressure: Transpiration method; for Triple point temperature: Adiabatic calorimetry
[2] = Molar enthalpy of transition or fusion; conditions: Crystal; Adiabatic calorimetry

CC(C)(C)c1ccc(-c2ccccc2)cc1 [4-(1,1-dimethylethyl)-1,1'-biphenyl]
[1]
Conditions | vapor or sublimation pressure [kPa]
301 K, Crystal | 8.2e-05
303.9 K, Crystal | 0.000119
305.9 K, Crystal | 0.000156
307.9 K, Crystal | 0.000203
310.9 K, Crystal | 0.000285
312.9 K, Crystal | 0.000369
313.8 K, Crystal | 0.000417
315.8 K, Crystal | 0.000507
318.8 K, Crystal | 0.000708
319.8 K, Crystal | 0.000814
320.2 K, Crystal | 0.000843
321.7 K, Crystal | 0.001012
322.7 K, Crystal | 0.001146
323.2 K, Crystal | 0.001207
325.2 K, Crystal | 0.0015
326.2 K, Crystal | 0.00168
327.4 K, Liquid | 0.00187
331.5 K, Liquid | 0.00263
334.4 K, Liquid | 0.00326
336.6 K, Liquid | 0.00389
338 K, Liquid | 0.00428
338.8 K, Liquid | 0.00465
340.5 K, Liquid | 0.00532
341.6 K, Liquid | 0.00563
343.7 K, Liquid | 0.00682
343.8 K, Liquid | 0.00673
346.6 K, Liquid | 0.00813
347.2 K, Liquid | 0.00852
347.6 K, Liquid | 0.00864
348.8 K, Liquid | 0.00962
349.8 K, Liquid | 0.0103
350.4 K, Liquid | 0.0106
352.8 K, Liquid | 0.01272
354.8 K, Liquid | 0.01441
357.4 K, Liquid | 0.01733
360.2 K, Liquid | 0.02099
362.6 K, Liquid | 0.025
364.9 K, Liquid | 0.02919
367.4 K, Liquid | 0.03524
370 K, Liquid | 0.04103
371.2 K, Liquid | 0.04325
372.6 K, Liquid | 0.04776
373.9 K, Liquid | 0.05134
375.3 K, Liquid | 0.05672
376.7 K, Liquid | 0.05953
378 K, Liquid | 0.06614

Conditions | Triple point temperature [K]
[1], Crystal | 324.76

Conditions | Molar enthalpy of transition or fusion [kcal/mol]
[2] | 4.75

Cc1ccc(-c2ccccc2)cc1 [4-methylbiphenyl]
[1], Liquid
Conditions | vapor or sublimation pressure [kPa]
323.2 K | 0.00854
325.4 K | 0.01016
327.2 K | 0.01156
329.7 K | 0.01376
332.2 K | 0.01664
334.6 K | 0.01979
336.2 K | 0.02224
338.7 K | 0.02634
341.6 K | 0.03282
344.1 K | 0.03851
346.4 K | 0.04496
349 K | 0.05244
351.2 K | 0.06003
353.2 K | 0.0695

Conditions | Triple point temperature [K]
[1], Crystal | 320.33

Conditions | Molar enthalpy of transition or fusion [kcal/mol]
[2] | 2.94
